Read-outs that look alike come from different tables or passages of the source.
Assays:
CHIKV = assay: Antiviral activity against CHIKV; type: cell-based; conditions: Chikungunya virus
in vitro [1] = assay: in vitro
EBOV (VP30, Huh) = assay: microbe, parasite or virus in culture; type: cell-based, Ebola Virus; conditions: for EC50: read-out: EC50, EBOV (VP30, Huh)
in vitro [2] = conditions: human
DENV2 = assay: Antiviral activity against DENV2; type: cell-based; conditions: Dengue Virus 2
SARS-CoV-2 (Omicron) = assay: microbe, parasite or virus in culture; type: cell-based; conditions: Severe acute respiratory syndrome coronavirus 2, Calu-3, read-out: IC50, SARS-CoV-2 (Omicron) (Calu3) #1
DENV4 = assay: Antiviral activity against DENV4; type: cell-based; conditions: Dengue Virus 4
[3] = Cytotoxicity (CC50) alongside DENV2 assay
[4] = Cytotoxicity (CC50) alongside SARS-CoV-2 WA-1 assay, lab #1; conditions: human, A549 cells
SARS-CoV-2 (WA-1) [5] = assay: microbe, parasite or virus in culture; type: cell-based; conditions: Severe acute respiratory syndrome coronavirus 2, A549, read-out: IC50, SARS-CoV-2 (WA-1) #2
[6] = Cytotoxicity (CC50) alongside SARS-CoV-2 WA-1 assay, lab #2; conditions: human, A549 cells
SARS-CoV-2 (WA-1) [7] = assay: microbe, parasite or virus in culture; type: cell-based; conditions: Severe acute respiratory syndrome coronavirus 2, A549, read-out: IC50, SARS-CoV-2 (WA-1) #1
VEEV = assay: microbe, parasite or virus in culture; type: cell-based; conditions: Venezuelan equine encephalitis virus, read-out: EC50, VEEV
OC43 = assay: Antiviral activity against OC43 (Huh 7.5 IFITM3); type: cell-based, human coronavirus; conditions: Betacoronavirus 1, OC43, Huh7.5
[8] = Cytotoxicity (CC50) alongside DENV4 assay
[9] = Cytotoxicity (CC50) alongside SARS-CoV-2 (A549-hACE2) assay; conditions: human, A549-hACE2 cells
SARS-CoV-2 (A549-hACE2) = assay: microbe, parasite or virus in culture; type: cell-based
in vitro [10] = assay: in vitro; remark: listed apart in the source
[11] = Zaire ebolavirus, Huh-7, read-out: IC50, EBOV (VP30, Huh)

With CC(C)OC(=O)[C@H](C)N[P@](=O)(OC[C@H]1O[C@@H](n2cnc3sc4c(=O)[nH]cnc4c32)C(O)C1O)Oc1ccccc1 (stereo in doubt) [CEM-010] the IC50 (CHIKV) was 82.5 µM and the CC50 (in vitro [1]) was greater than 100 µM.
Molecule CC1(F)C(O)[C@@H](CO)O[C@H]1n1cnc2sc3c(N)nc(N)nc3c21 (stereo in doubt) [CEM-024, 2′-deoxy-2′-fluoro-2′-C-methyl-1′-[(5,7-diaminoimidazo-[4′,5′:4,5]thieno[3,2-d]pyrimidin-3-yl)]-β-D-ribofuranose] has an IC50 (EBOV (VP30, Huh); [11]) of 31 µM and a CC50 (in vitro [2]) of 11 µM.
Nc1nc(N)c2sc3ncn([C@@H]4O[C@H](CO)C(O)C4O)c3c2n1 (stereo partly drawn) [CEM-007, 1-[(5,7-diaminoimidazo-[4′,5′:4,5]thieno[3,2-d]pyrimidin-3-yl)]-β-D-ribofuranose-2,3,5-Triol] gave an IC50 (DENV2) of 45 µM, an IC50 (SARS-CoV-2 (Omicron)) of 56.4 µM and an IC50 (EBOV (VP30, Huh); [11]) of 15.2 µM. The EC50 (EBOV (VP30, Huh); Zaire ebolavirus) was 40.5 µM, the IC50 (EBOV (VP30, Huh); read-out: IC50, EBOV (VP30, Huh)) was 11.7 µM and the CC50 (in vitro [2]) was greater than 100 µM. It also gave an IC50 (DENV4) of 64 µM.
For CC(C)OC(=O)[C@H](C)N[P@](=O)(OC[C@H]1O[C@@H](n2cnc3sc4c(N)ncnc4c32)C(O)C1O)Oc1ccccc1 (stereo partly shown) [CEM-012], the IC50 (EBOV (VP30, Huh); [11]) was 49.3 µM and the CC50 (in vitro [2]) was 17.7 µM.
Work on CC(C)OC(=O)[C@H](C)N[P@](=O)(OC[C@H]1O[C@@H](n2cnc3sc(C(N)=O)c(N)c32)C(O)C1O)Oc1ccccc1 (stereo partly shown) [CEM-015] yielded an IC50 (CHIKV) of 93.9 µM.
Nc1nc2c(sc3ncn([C@@H]4O[C@H](CO)C(O)C4O)c32)c(=O)[nH]1 (stereo partly drawn) [CEM-021, 1-[(5-Aminoimidazo[4′,5′:4,5]thieno[3,2-d]pyrimidin-3-yl-7-one)]-β-D-ribofuranose 2,3,5-Triol] gave an IC50 (DENV2) of 73.5 µM, an IC50 (EBOV (VP30, Huh); [11]) of 43.6 µM and a CC50 [3] greater than 100 µM. It also gave a CC50 (in vitro [2]) of 60.5 µM and an IC50 (DENV4) of 100 µM.
For COc1nc(OC)c2sc3ncn([C@@H]4O[C@H](CO)C(O)C4O)c3c2n1 (stereo partly drawn) [CEM-028, 1-[(5,7-dimethoxyimidazo-[4′,5′:4,5]thieno[3,2-d]pyrimidin-3-yl)]-β-D-ribofuranose-2,3,5-Triol], the IC50 (EBOV (VP30, Huh); [11]) was 48 µM and the CC50 (in vitro [2]) was 138 µM.
In the case of COc1nc(OC)c2sc3ncn([C@@H]4O[C@H](CO[P@@](=O)(N[C@@H](C)C(=O)OC(C)C)Oc5ccccc5)C(O)C4O)c3c2n1 (stereo partly shown) [CEM-036], the CC50 [4] is reported as greater than 100 µM, the IC50 (SARS-CoV-2 (WA-1) [5]) is reported as 48.4 µM and the IC50 (DENV2) is reported as 24 µM. It also gave a CC50 [6] greater than 100 µM, an IC50 (SARS-CoV-2 (Omicron)) greater than 100 µM and an IC50 (EBOV (VP30, Huh); [11]) of 37.7 µM. For the same molecule, the CC50 [3] was greater than 100 µM, the IC50 (SARS-CoV-2 (WA-1) [7]) was 21.6 µM and the IC50 (DENV4) was 34 µM.
In the case of CC(C)OC(=O)[C@H](C)N[P@@](=O)(Oc1ccccc1)OC1[C@@H](CO[P@@](=O)(N[C@@H](C)C(=O)OC(C)C)Oc2ccccc2)O[C@@H](n2cnc3sc4c(N)nc(N)nc4c32)C1(C)F (stereo partly shown) [CEM-042], the CC50 [4] is reported as greater than 100 µM, the EC50 (VEEV) is reported as 86.7 µM and the IC50 (SARS-CoV-2 (WA-1) [5]) is reported as 5.89 µM. For the same molecule, the IC50 (DENV2) was 3.5 µM, the IC90 (DENV2) was 6.8 µM and the CC50 [6] was greater than 100 µM. It also gave an EC50 (OC43) of 1.5 µM, an IC50 (SARS-CoV-2 (Omicron)) of 7.36 µM and an IC50 (EBOV (VP30, Huh); [11]) of 11.6 µM. It also gave a CC50 [8] greater than 100 µM, a CC50 [9] greater than 100 µM and a CC50 [3] greater than 100 µM. It also gave an IC50 (SARS-CoV-2 (WA-1) [7]) of 3.58 µM, an EC50 (SARS-CoV-2 (A549-hACE2); Severe acute respiratory syndrome coronavirus 2, read-out: EC50, SARS-CoV-2 (A549-hACE2)) of 5.89 µM and an EC90 (SARS-CoV-2 (A549-hACE2); Severe acute respiratory syndrome coronavirus 2, read-out: EC90, SARS-CoV-2 (A549-hACE2)) of 6.5 µM. For the same molecule, the IC50 (DENV4) was 7.5 µM, the IC90 (DENV4) was 25 µM and the EC50 (CHIKV) was 24.6 µM. The CC50 (in vitro [10]) was greater than 100 µM and the CC50 (in vitro [1]) was greater than 100 µM.
Molecule CCC(CC)COC(=O)[C@H](C)N[P@](=O)(OC[C@H]1O[C@@H](n2cnc3sc4c(N)nc(N)nc4c32)C(C)(F)C1O)Oc1ccccc1 (stereo partly shown) [CEM-052] has an IC50 (DENV2) of 19 µM, an IC50 (SARS-CoV-2 (Omicron)) of 20.6 µM and an EC50 (EBOV (VP30, Huh); Zaire ebolavirus) of 9.1 µM. The EC50 (EBOV (VP30, Huh)) was 11.4 µM, the CC50 [8] was 33 µM and the IC50 (DENV4) was 16 µM.
With CCC(CC)COC(=O)[C@H](C)N[P@@](=O)(Oc1ccccc1)OC1[C@@H](CO[P@@](=O)(N[C@@H](C)C(=O)OCC(CC)CC)Oc2ccccc2)O[C@@H](n2cnc3sc4c(N)nc(N)nc4c32)C1(C)F (stereo partly shown) [CEM-053] the IC50 (SARS-CoV-2 (WA-1) [5]) was 2.95 µM, the IC50 (DENV2) was 18 µM and the IC50 (SARS-CoV-2 (Omicron)) was 21.9 µM. It also gave an EC50 (EBOV (VP30, Huh); Zaire ebolavirus) of 4.5 µM, an EC50 (EBOV (VP30, Huh)) of 6.7 µM and a CC50 [8] greater than 50 µM. For the same molecule, the IC50 (DENV4) was 2.9 µM.
CC(C)OC(=O)[C@H](C)N[P@](=O)(OC[C@H]1O[C@@H](n2cnc3sc4c(N)nc(N)nc4c32)C(C)(F)C1OC(=O)C(C)C)Oc1ccccc1 (stereo partly shown) [CEM-054] showed an IC50 (DENV2) of 22 µM, an IC50 (SARS-CoV-2 (Omicron)) of 37.9 µM and an EC50 (EBOV (VP30, Huh); Zaire ebolavirus) of 10.8 µM. For the same molecule, the EC50 (EBOV (VP30, Huh)) was 11.2 µM, the CC50 [8] was 32 µM and the IC50 (DENV4) was 10 µM.
CCC(CC)COC(=O)[C@H](C)N[P@](=O)(OC[C@H]1O[C@@H](n2cnc3sc4c(N)nc(N)nc4c32)[C@](C)(F)C1OC(=O)C(C)C)Oc1ccccc1 (stereo partly shown) [CEM-055] showed an IC50 (SARS-CoV-2 (WA-1) [5]) of 11.9 µM, an IC50 (SARS-CoV-2 (Omicron)) of 19.6 µM and an EC50 (EBOV (VP30, Huh); Zaire ebolavirus) of 6.2 µM. The EC50 (EBOV (VP30, Huh)) was 10.1 µM.
In the case of CCC(CC)COC(=O)[C@H](C)N[P@](=O)(OC[C@H]1O[C@@H](n2cnc3sc4c(N)nc(N)nc4c32)C(O)C1O)Oc1ccccc1 (stereo partly shown) [CEM-056], the IC50 (SARS-CoV-2 (WA-1) [5]) is reported as 44.7 µM, the IC50 (SARS-CoV-2 (Omicron)) is reported as 59.3 µM and the EC50 (EBOV (VP30, Huh); Zaire ebolavirus) is reported as 22.1 µM.

— patent publication US20260184738A1 (priority 2023, published 2026)
